Experimental data published in PubChem BioAssay AID687005 (Broad Institute, 2013).
Results filed as inconclusive are left out. Active and inactive are the calls of the source.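 Rule for the calls: active = Compounds that reduce signal, with fitted half-maximal dose at or under twice the top valid tested dose; inconclusive = Poor fit, or flat curve losing 30 to 70% of signal; inactive = Potency past limit, flat within 30%, or opposite direction.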

Assay: HEK293T cell cytotoxicity, dose response, cytotoxicity control, ATP luminescence, cherry-pick samples (AID 687005)
Conditions: HEK293T viability, ATP luminescence (CellTiter-Glo), 48 h; at 23.5 µM (top of the series)

Compound | activity change, negative = cytotoxicity
C[C@H](CO)N1C[C@H](C)[C@@H](CN(C)C(=O)Nc2ccc(F)cc2)Oc2c(NS(=O)(=O)c3ccccc3)cccc2C1=O | -4.44% (inactive)
C[C@@H]1CCCCO[C@@H](CN(C)Cc2ccc3c(c2)OCO3)[C@@H](C)CN([C@H](C)CO)C(=O)c2cc(NS(=O)(=O)c3ccc(F)cc3)ccc2O1 | -35.2% (inactive)
CC(C)NC(=O)Nc1cccc2c1O[C@H](CN(C)C)[C@H](C)CN([C@H](C)CO)C2=O | 7.48% (inactive)
C[C@@H]1CN([C@@H](C)CO)C(=O)c2cc(NS(=O)(=O)c3ccccc3)ccc2O[C@H]1CN(C)C(=O)NC1CCCCC1 | -17.7% (inactive)
COc1ccc(NC(=O)N(C)C[C@@H]2OCCCC[C@@H](C)Oc3ccc(NC(=O)Nc4ccc5c(c4)OCO5)cc3C(=O)N([C@@H](C)CO)C[C@H]2C)cc1 | -17% (inactive)
C[C@H](CO)N1C[C@H](C)[C@@H](CN(C)C(=O)c2ccncc2)OCCCC[C@H](C)Oc2ccc(NC(=O)Cc3ccccc3)cc2C1=O | -0.45% (inactive)
COC(=O)C1=C(C)N(Cc2ccc(Cl)cc2)C(=S)NC1c1ccc(Br)cc1 (stereo not drawn) | -20.4% (inactive)
C[C@@H]1CN([C@H](C)CO)C(=O)c2cc(NC(=O)CCC(F)(F)F)ccc2O[C@@H](C)CCCCO[C@@H]1CN(C)C(=O)c1ccncc1 | -15.4% (inactive)

Same assay, conditions: HEK293T viability, ATP luminescence (CellTiter-Glo), 48 h; at 26 µM (top of the series)

Compound | activity change, negative = cytotoxicity
C[C@@H]1CCCCO[C@H](CN(C)S(=O)(=O)c2cccs2)[C@@H](C)CN([C@@H](C)CO)C(=O)c2cc(NC(=O)CCC(F)(F)F)ccc2O1 | 0.337% (inactive)
COc1ccc(NC(=O)N(C)C[C@@H]2OCCCC[C@H](C)Oc3ccc(NC(=O)Nc4ccc5c(c4)OCO5)cc3C(=O)N([C@H](C)CO)C[C@@H]2C)cc1 | 4.66% (inactive)
CCC(C)(C(=O)NC1CCCC1)N(C(C)=O)c1ccc(C)cc1 (stereo not drawn) | 9.31% (inactive)
CCNC(=O)C[C@@H]1CC[C@H]2[C@@H](COC[C@@H](O)CN2S(=O)(=O)c2ccccc2F)O1 | 51.2% (inactive)
CC(=O)NC[C@@H]1[C@@H](c2ccc(C3=CCCC3)cc2)[C@@H](CO)N1C(=O)NC(C)C | 6.26% (inactive)
CC(C)NC(=O)Nc1ccc2c(c1)C(=O)N([C@@H](C)CO)C[C@H](C)[C@@H](CN(C)S(=O)(=O)c1cccs1)OCCCC[C@H](C)O2 | -17.5% (inactive)
CC(C)CC#Cc1cnc2c(c1)C(=O)N([C@@H](C)CO)C[C@@H](C)[C@@H](CN(C)C(=O)c1cccc(F)c1)O2 | -19.3% (inactive)
COCC(=O)Nc1ccc2c(c1)OC[C@@H](C)N(C(=O)Cc1cccnc1)C[C@H](C)[C@@H](OC)CN(C)C2=O | -14.6% (inactive)
COC(=O)C1=C(C)N(Cc2ccc(Cl)cc2)C(=S)NC1c1cccc(OC)c1 (stereo not drawn) | -34.3% (inactive)
CCC(=O)N1[C@H](C(=O)Nc2ccccc2)[C@@H](CO)[C@@H]2Cn3c(ccc(-c4ccncc4)c3=O)[C@@H]21 | 24.7% (inactive)
CCCC(=O)Nc1ccc2c(c1)OC[C@@H](C)N(Cc1ccccn1)C[C@@H](C)[C@H](OC)CN(C)C2=O | 25.3% (inactive)
Cc1ccc(S(=O)(=O)N[C@H]2CC[C@H](CCNC(=O)C3CCCC3)O[C@@H]2CO)cc1 | -7.25% (inactive)
C[C@@H]1CN([C@@H](C)CO)C(=O)c2cc(NC(=O)Nc3cccc4ccccc34)ccc2O[C@@H]1CN(C)C(=O)Nc1ccccc1 | 42.1% (inactive)
S=C(NCc1ccccc1)NCC1COc2ccccc2O1 (stereo not drawn) | -15.9% (inactive)
COc1cccc(S(=O)(=O)N2C[C@@H](O)COC[C@H]3O[C@H](CC(=O)N4CCN(C)CC4)CC[C@@H]32)c1 | -1.64% (inactive)
O=C1CCC(C(=O)Nc2ccc(Cl)cc2)N1 (stereo not drawn) | 11% (inactive)
O=C(Nc1ccc(F)cc1)N1C[C@H]2[C@@H](c3ccccc31)[C@@H](CO)N2Cc1cocn1 | -16.4% (inactive)
CC(C)NC(=O)Nc1ccc2c(c1)C(=O)N([C@@H](C)CO)C[C@@H](C)[C@H](CN(C)Cc1ccncc1)OCCCC[C@@H](C)O2 | 75.6% (inactive)
O=C(N[C@H]1CC[C@@H](CCn2cc(-c3ccccc3)nn2)O[C@@H]1CO)c1cnccn1 | 40.7% (inactive)
C[C@@H]1CN([C@@H](C)CO)C(=O)c2cccc(NS(C)(=O)=O)c2O[C@@H]1CN(C)C(=O)Nc1ccc2c(c1)OCO2 | -20.4% (inactive)
C[C@@H]1CN([C@@H](C)CO)C(=O)c2cccc(NC(=O)C3CC3)c2O[C@@H]1CN(C)C | -4.49% (inactive)
CCC(=O)Nc1ccc2c(c1)C(=O)N(C)C[C@@H](OC)[C@H](C)CN[C@@H](C)CO2 | 4.18% (inactive)
C[C@H](CO)N1C[C@H](C)[C@H](CN(C)C(=O)c2ccccn2)Oc2ncc(-c3ccccc3)cc2C1=O | -0.807% (inactive)
COCC(=O)Nc1ccc2c(c1)C(=O)N(C)C[C@@H](OC)[C@H](C)CN(Cc1ccccc1)[C@@H](C)CO2 | 7.91% (inactive)
C/C=C/c1ccc([C@@H]2[C@@H](CO)N3CCCCN(C(=O)Nc4ccc(OC)cc4)C[C@H]23)cc1 | 48.4% (inactive)
CNC[C@H]1Oc2ncc(C#CCC(C)C)cc2C(=O)N([C@H](C)CO)C[C@H]1C | 29% (inactive)

Compound | activity change, negative = cytotoxicity
C/C=C/c1ccc([C@@H]2[C@@H](CNC(=O)c3ccccc3)N(C(C)=O)[C@H]2CO)cc1 | 13.1% (inactive)
CC(C)NC(=O)NCC[C@@H]1CC[C@@H](NC(=O)CN(C)C)[C@@H](CO)O1 | 44.1% (inactive)
C[C@H](CO)N1C[C@H](C)[C@H](CN(C)Cc2ccccc2)OCCCC[C@H](C)Oc2ccc(NS(=O)(=O)c3cccs3)cc2C1=O | -20.5% (inactive)
C/C=C/c1ccc([C@@H]2[C@@H](C#N)N(S(=O)(=O)c3cccc(F)c3)[C@@H]2CO)cc1 | 4.72% (inactive)
CC(C)NC(=O)Nc1ccc2c(c1)CC(=O)N([C@@H](C)CO)C[C@@H](C)[C@H](CN(C)C(=O)Nc1ccc3c(c1)OCO3)O2 | 50.2% (inactive)
C[C@H](CO)N1C[C@H](C)[C@H](CN(C)Cc2cccnc2)Oc2ncc(C#CC3(O)CCCC3)cc2C1=O | -14.5% (inactive)
O=C(CSc1ncnc2c1cnn2-c1ccccc1)Nc1ccc2c(c1)OCO2 | 2.1% (inactive)
Cc1cc(C)c(NC(=O)C2CCCN2C)c(C)c1 (stereo not drawn) | 10.5% (inactive)
COc1ccc(CN(C)C[C@@H]2Oc3ccc(NC(=O)C4CC4)cc3C(=O)N([C@H](C)CO)C[C@H]2C)cc1 | 15.3% (inactive)
COc1ccc(S(=O)(=O)Nc2ccc3c(c2)C(=O)N([C@H](C)CO)C[C@H](C)[C@H](CN(C)C(=O)Nc2ccccc2)O3)cc1 | -2.82% (inactive)
CC(C)NC(=O)Nc1ccc2c(c1)CC(=O)N([C@@H](C)CO)C[C@@H](C)[C@@H](CN(C)Cc1ccc(Oc3ccccc3)cc1)O2 | -58.4% (inactive)
CCC(C)(NC=O)C(=O)Nc1c(C)cccc1C (stereo not drawn) | -37.8% (inactive)
CCNC(=O)Nc1ccc2c(c1)C(=O)N(C)[C@H]1CC[C@H](CC(=O)N[C@@H](C)c3ccccc3)O[C@H]1CO2 | 75.7% (inactive)
C[C@H]1CN([C@@H](C)CO)C(=O)CCCn2cc(nn2)CO[C@@H]1CN(C)Cc1ccc(C(F)(F)F)cc1 | -2.59% (inactive)
C[C@@H]1CN([C@@H](C)CO)C(=O)c2cc(-c3cncnc3)cnc2O[C@H]1CN(C)C(=O)Cc1ccccc1 | -0.143% (inactive)
CO[C@@H]1CC[C@@H]2CCOc3c(C#N)cccc3C(=O)N(C)C[C@H](c3ccccc3)CC(=O)N(C)C[C@@H]1O2 | -28.5% (inactive)
CCCNC(=O)C[C@@H]1CC[C@H]2[C@@H](COC[C@H](O)CN2Cc2ccccc2F)O1 | 22.6% (inactive)
Cc1noc(C)c1S(=O)(=O)Nc1ccc2c(c1)CC(=O)N([C@H](C)CO)C[C@H](C)[C@@H](CN(C)S(=O)(=O)c1cn(C)cn1)O2 | -28.7% (inactive)
CCC(=O)N1[C@H](CO)[C@H](c2ccccc2)[C@@H]1CN(CC)C(=O)c1cccc(F)c1 | 25% (inactive)
O=C(C[C@@H]1CC[C@H](NC(=O)Cc2ccccn2)[C@@H](CO)O1)NCCc1ccccc1 | -8.35% (inactive)
C[C@H](CO)N1C[C@H](C)[C@H](CN(C)S(=O)(=O)c2cn(C)cn2)Oc2ncc(/C=C/c3ccccc3)cc2C1=O | 5.3% (inactive)
O=C(C[C@H]1C[C@@H]2c3cc(NC(=O)CC4CC4)ccc3O[C@@H]2[C@@H](CO)O1)NCc1cccc(F)c1 | 35.8% (inactive)
O=C(NCC[C@H]1CC[C@@H](NS(=O)(=O)c2ccc(F)cc2)[C@H](CO)O1)c1ccc2c(c1)OCO2 | 1.86% (inactive)
O=C(Nc1cccc(F)c1)N[C@H]1CC[C@@H](CCNS(=O)(=O)c2cccc(Cl)c2)O[C@@H]1CO | -36.3% (inactive)
CCCC(=O)Nc1ccc2c(c1)OC[C@@H](C)N(Cc1cncnc1)C[C@@H](C)[C@@H](OC)CN(C)C2=O | 49.4% (inactive)
C[C@H]1CN([C@@H](C)CO)C(=O)c2cccc(N(C)C)c2O[C@@H]1CN(C)C(=O)Nc1cccc2ccccc12 | -6.36% (inactive)

Same assay, conditions: HEK293T viability, ATP luminescence (CellTiter-Glo), 48 h; at 30 µM (top of the series)

Compound | activity change, negative = cytotoxicity
COCCN1C(=S)N[C@@H](c2ccccc2)C(C(=O)OC)=C1C | 28.9% (inactive)

Same assay, conditions: HEK293T viability, ATP luminescence (CellTiter-Glo), 48 h; at 38 µM (top of the series)

Compound | activity change, negative = cytotoxicity
CCCC(C)(C)C(=O)N1CCC1(C)C(=O)Nc1ccc(C)cc1 (stereo not drawn) | -11.3% (inactive)

Same assay, conditions: HEK293T viability, ATP luminescence (CellTiter-Glo), 48 h; at 50 µM (top of the series)

Compound | activity change, negative = cytotoxicity
Cc1ccc(OCC(=O)NCc2ccccc2)cc1 | 29% (inactive)
